Assay [1] relates to P. falciparum male gametocytes. In words: P. falciparum Dual Gamete Formation Assay (PfDGFA), male readout (exflagellation). Format: cell-based, Plasmodium falciparum NF54. To be noted: for Average inhibition male (%): average of replicates; for % inhibition male (individual replicates) R1: replicate R1; for % inhibition male (individual replicates) R3: replicate R3; for % inhibition male (individual replicates) R4: replicate R4; for Activity: hit = >50% inhibition in male or female readout in at least 3 replicates, 0 = no class assigned. The gist of the method:
(§1)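 Male and female gamete formation were quantified by microscopy image analysis following 24 h incubation of mature NF54 gametocytes with compound and activation at 28°C with xanthurenic acid.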

Assay [2] concerns P. falciparum female gametocytes. In words: P. falciparum Dual Gamete Formation Assay (PfDGFA), female readout (Pfs25-positive female gametes). Particulars: for Average inhibition female (%): average of replicates; for % inhibition female (individual replicates) R1: replicate R1; for % inhibition female (individual replicates) R3: replicate R3; for % inhibition female (individual replicates) R4: replicate R4. Format: cell-based, Plasmodium falciparum NF54. The gist of the method: as §1

Setting [3] is: 2µM, 24h preincubation with gametocytes prior to induction of gametogenesis.
[4] abbreviates: 2µM, 24h preincubation, number of replicates with >50% inhibition in the male readout.
Setting [5] is: 2µM, 24h preincubation, number of replicates with >50% inhibition in the female readout.
Setting [6] is: 2µM, 24h preincubation, hits selected on >50% inhibition in the male readout across replicates.
Setting [7] is: PfDGFA at 2µM, 24h preincubation.
Where [8] appears, read: 2µM, 24h preincubation, hits selected on >50% inhibition in the female readout across replicates.
Setting [9] is: PfDGFA at 2µM, 24h preincubation with gametocytes.
Where [10] appears, read: PfDGFA at 2µM, 24h preincubation with gametocytes prior to induction of gametogenesis.

As to `CCN1CCC2(c3cccc(OC)c3)Cc3nc4ccccc4c(-c4ccccc4)c3CC2C1` (stereo not drawn) [TCMDC-138968], in assay [1] (setting [3]), the “Average inhibition male (%)” value is 50.6%, the “% inhibition male (individual replicates) R1” value came to 28.7%, the “% inhibition male (individual replicates) R3” value is listed as 22.4% and the “% inhibition male (individual replicates) R4” value was found to be 66.9%. Moreover, the HitlevelM in assay [1] (setting [4]) came out at 2. In addition, in assay [2] (setting [3]), the “Average inhibition female (%)” value is reported as 33.9%, the “% inhibition female (individual replicates) R1” value was 34.1%, the “% inhibition female (individual replicates) R3” value is 23.7% and the “% inhibition female (individual replicates) R4” value was 21.6%. In assay [2] (setting [5]), this compound returned a HitlevelF of 1.

With `Oc1ccc2[nH]cc(C3CCN(CCCNCc4ccc(-c5ccccc5)cc4)CC3)c2c1` [TCMDC-139047], in assay [1] (setting [3]), the “Average inhibition male (%)” value came out at 41.4%, the “% inhibition male (individual replicates) R1” value turned out to be 26.8% and the “% inhibition male (individual replicates) R4” value came to 40.8%. This compound also showed a HitlevelM in assay [1] (setting [4]) of 1. Moreover, in assay [2] (setting [3]), the “Average inhibition female (%)” value was 20.7%, the “% inhibition female (individual replicates) R1” value is 11.5%, the “% inhibition female (individual replicates) R3” value is given as 19.3% and the “% inhibition female (individual replicates) R4” value was 14.8%. In assay [2] (setting [5]), the HitlevelF stood at 0.

Consider `NC(CC1CC(=O)N1CC(=O)O)C(=O)O` (stereo not drawn) [TCMDC-139050], for which, in assay [1] (setting [3]), the “Average inhibition male (%)” value was -4.7%, the “% inhibition male (individual replicates) R1” value is given as 15.3%, the “% inhibition male (individual replicates) R3” value was -15.7% and the “% inhibition male (individual replicates) R4” value is -29.8%. This compound also showed a HitlevelM in assay [1] (setting [6]) of 0. Further, the Activity in assay [1] (setting [7]) is recorded as 0. Further, in assay [2] (setting [3]), the “Average inhibition female (%)” value was 6.8%, the “% inhibition female (individual replicates) R1” value was 12.5%, the “% inhibition female (individual replicates) R3” value worked out at 4.8% and the “% inhibition female (individual replicates) R4” value is 14.4%. For the same compound, the HitlevelF in assay [2] (setting [8]) is on record as 0.

Consider `COC(=O)c1ccc(-c2ccc(-c3cccnc3)cc2C)cc1` [TCMDC-139074], for which, in assay [1] (setting [3]), the “Average inhibition male (%)” value came out at 18.8%, the “% inhibition male (individual replicates) R1” value worked out at 21.7%, the “% inhibition male (individual replicates) R3” value is on record as 27.9% and the “% inhibition male (individual replicates) R4” value was 3.9%. In assay [1] (setting [6]), the HitlevelM was found to be 0. The same compound displayed an Activity in assay [1] (setting [7]) of 0. Moreover, in assay [2] (setting [3]), the “Average inhibition female (%)” value was determined as 13.5%, the “% inhibition female (individual replicates) R1” value is 26.9%, the “% inhibition female (individual replicates) R3” value is recorded as 10.2% and the “% inhibition female (individual replicates) R4” value came to 0.5%. The HitlevelF in assay [2] (setting [8]) is 0.

Consider `CN(C)CCCc1cc2c(cc1Cl)CCN2C(=O)Nc1ccc(-c2ccncc2)c2ccccc12` [TCMDC-139215], for which, in assay [1] (setting [3]), the “Average inhibition male (%)” value came out at 2.0%, the “% inhibition male (individual replicates) R1” value was 5.2%, the “% inhibition male (individual replicates) R3” value is recorded as 1.0% and the “% inhibition male (individual replicates) R4” value was determined as 8.2%. In assay [1] (setting [6]), the HitlevelM stood at 0. In assay [1] (setting [7]), this compound returned an Activity of 0. In assay [2] (setting [3]), the “Average inhibition female (%)” value worked out at 5.1%, the “% inhibition female (individual replicates) R1” value is 27.9%, the “% inhibition female (individual replicates) R3” value is listed as -29.4% and the “% inhibition female (individual replicates) R4” value came to 20.5%. In assay [2] (setting [8]), this compound registered a HitlevelF of 0.

With `CN1CCN(c2cc3c(cc2Cl)CCN3C(=O)Nc2ccc(NC(=O)c3ccc(C(F)(F)F)cc3)cc2)CC1.Cl` [TCMDC-139270], in assay [1] (setting [9]), the “Average inhibition male (%)” value was determined as 84.1%, the “% inhibition male (individual replicates) R1” value is 90.7%, the “% inhibition male (individual replicates) R3” value was 63.5% and the “% inhibition male (individual replicates) R4” value was determined as 92.9%. Further, the HitlevelM in assay [1] (number of replicates with >50% inhibition in the male readout, 2µM) was determined as 4. Also, in assay [2] (setting [9]), the “Average inhibition female (%)” value stood at 59.6%, the “% inhibition female (individual replicates) R1” value worked out at 37.1%, the “% inhibition female (individual replicates) R3” value was determined as 50.9% and the “% inhibition female (individual replicates) R4” value was 69.9%. In addition, the HitlevelF in assay [2] (number of replicates with >50% inhibition in the female readout, 2µM) is 3.

Regarding `CCCCCCCN1CC[C@@H](CCCc2ccnc3ccc(OC)cc23)[C@@H](CCN)C1.O=C(O)C(=O)O` [TCMDC-139278], in assay [1] (setting [3]), the “Average inhibition male (%)” value stood at 60.9%, the “% inhibition male (individual replicates) R1” value was determined as 62.0% and the “% inhibition male (individual replicates) R4” value is 48.5%. Besides, the HitlevelM in assay [1] (setting [6]) was found to be 2. The same compound showed an Activity in assay [1] (setting [7]) of 0. Also, in assay [2] (setting [3]), the “Average inhibition female (%)” value was found to be 13.3%, the “% inhibition female (individual replicates) R1” value is recorded as 23.8%, the “% inhibition female (individual replicates) R3” value is listed as -1.7% and the “% inhibition female (individual replicates) R4” value turned out to be 20.4%. Besides, the HitlevelF in assay [2] (setting [8]) turned out to be 0.

On to `COc1ccc(COc2cc(NCCCN)nc3ccccc23)cc1` [TCMDC-139286], for which, in assay [1] (setting [3]), the “Average inhibition male (%)” value stood at 30.7%, the “% inhibition male (individual replicates) R1” value is recorded as 52.7%, the “% inhibition male (individual replicates) R3” value is listed as 36.6% and the “% inhibition male (individual replicates) R4” value came to 44.0%. Also, the HitlevelM in assay [1] (setting [4]) is given as 1. In addition, in assay [2] (setting [3]), the “Average inhibition female (%)” value came out at 19.5%, the “% inhibition female (individual replicates) R1” value amounted to 25.0%, the “% inhibition female (individual replicates) R3” value is listed as 18.0% and the “% inhibition female (individual replicates) R4” value was 26.8%. Moreover, the HitlevelF in assay [2] (setting [5]) was determined as 0.

Take `COc1cc(NCC(O)CNc2cc(OC)c3ccccc3n2)nc2ccccc12` [TCMDC-139360]: in assay [1] (setting [3]), the “Average inhibition male (%)” value turned out to be 53.4%, the “% inhibition male (individual replicates) R1” value came out at 68.1%, the “% inhibition male (individual replicates) R3” value is 33.7% and the “% inhibition male (individual replicates) R4” value stood at 64.9%. In assay [1] (setting [4]), this compound had a HitlevelM of 2. In addition, in assay [2] (setting [3]), the “Average inhibition female (%)” value turned out to be 25.6%, the “% inhibition female (individual replicates) R1” value is 27.5%, the “% inhibition female (individual replicates) R3” value stood at 10.8% and the “% inhibition female (individual replicates) R4” value amounted to 36.1%. The compound also gave a HitlevelF in assay [2] (setting [5]) of 0.

Take `COc1ccc(C(=O)Nc2cc(Cl)c3c(c2)C2CCCN2CC3)cc1C(F)(F)F.Cl` (stereo not drawn) [TCMDC-139417]: in assay [1] (setting [10]), the “% inhibition male (individual replicates) R1” value is given as -1.3% and the “% inhibition male (individual replicates) R4” value is given as 9.8%. Besides, the “Average inhibition male (%)” value in assay [1] (setting [7]) amounted to 13.2%. Moreover, in assay [2] (setting [10]), the “% inhibition female (individual replicates) R1” value is on record as 2.5%, the “% inhibition female (individual replicates) R3” value is given as -4.3% and the “% inhibition female (individual replicates) R4” value is 1.3%. Besides, the “Average inhibition female (%)” value in assay [2] (setting [7]) is 1.8%.

Consider `N=C(N)Nc1nc(-c2cccc(NC(=O)NCCc3c[nH]c4ccc(OCc5ccccc5)cc34)c2)cs1` [TCMDC-139557], for which, in assay [1] (setting [3]), the “Average inhibition male (%)” value is on record as 6.6%, the “% inhibition male (individual replicates) R1” value came out at 1.3%, the “% inhibition male (individual replicates) R3” value was 4.0% and the “% inhibition male (individual replicates) R4” value was 10.9%. For the same compound, the HitlevelM in assay [1] (setting [6]) was determined as 0. The Activity in assay [1] (setting [7]) is recorded as 0. Moreover, in assay [2] (setting [3]), the “Average inhibition female (%)” value is reported as 5.9%, the “% inhibition female (individual replicates) R1” value stood at 1.1%, the “% inhibition female (individual replicates) R3” value was -17.0% and the “% inhibition female (individual replicates) R4” value is recorded as 37.8%. In addition, in assay [2] (setting [8]), the HitlevelF came to 0.

`CC(Cc1ccc(CNC(=O)c2ccc(CC(C)NCCc3cccc(Cl)c3)cc2)cc1)NCCc1cccc(Cl)c1` (stereo not drawn) [TCMDC-139659]: in assay [1] (setting [3]), the “Average inhibition male (%)” value came to 33.9%, the “% inhibition male (individual replicates) R1” value amounted to 26.3%, the “% inhibition male (individual replicates) R3” value is listed as 2.8% and the “% inhibition male (individual replicates) R4” value came out at 42.9%. Also, in assay [1] (setting [6]), the HitlevelM worked out at 1. This compound registered an Activity in assay [1] (setting [7]) of 0. In assay [2] (setting [3]), the “Average inhibition female (%)” value is given as 5.1%, the “% inhibition female (individual replicates) R1” value is reported as 10.4%, the “% inhibition female (individual replicates) R3” value is on record as -19.4% and the “% inhibition female (individual replicates) R4” value is -1.7%. The HitlevelF in assay [2] (setting [8]) came out at 0.

For `O=C(/C=C/c1ccc(Cl)c(Cl)c1)N1CCC2CC(N3CCC(c4c[nH]c5ccccc45)CC3)CCC2C1` (stereo not drawn) [TCMDC-139677], in assay [1] (setting [3]), the “Average inhibition male (%)” value is 6.9%, the “% inhibition male (individual replicates) R1” value is given as -0.85%, the “% inhibition male (individual replicates) R3” value stood at 2.4% and the “% inhibition male (individual replicates) R4” value was 12.3%. The compound further registered a HitlevelM in assay [1] (setting [6]) of 0. In assay [1] (setting [7]), this compound gave an Activity of 0. Further, in assay [2] (setting [3]), the “Average inhibition female (%)” value was determined as 4.1%, the “% inhibition female (individual replicates) R1” value is listed as 10.8%, the “% inhibition female (individual replicates) R3” value was -1.7% and the “% inhibition female (individual replicates) R4” value worked out at 7.4%. The same compound yielded a HitlevelF in assay [2] (setting [8]) of 0.

The values are drawn from article PMC10584170, “Machine learning-based phenotypic imaging to characterise the targetable biology of Plasmodium falciparum male gametocytes for the development of transmission-blocking antimalarials” (PLOS Pathogens, 2023).
